From patent US20200190043A1, “2-[[5-(TRIFLUOROMETHYL)-1,2,4-OXADIAZOL-3-YL]ARYLOXY](THIO)ACETAMIDES FOR COMBATING PHYTOPATHOGENIC FUNGI” (BASF SE, priority 2017, published 2020)

Assays:
[1] = system: Puccinia recondita; assay: Preventative control of brown rust on wheat (glass house trial); format: in vivo; conditions: 63 ppm active compound, wheat seedlings, untreated plants 80% diseased leaf area
Experimental: (§1) A mixture was prepared of acetone and/or dimethylsulfoxide and the wetting agent/emulsifier Wettol, which is based on ethoxylated alkylphenoles, in a relation (volume) solvent-emulsifier of 99 to 1 was added to the compound to give a total of 5 ml. Water was then added to a total volume of 100 ml. This stock solution was diluted with the described solvent-emulsifier-water mixture to the given concentration. II.4) Preventative Control of Brown Rust on Wheat Caused by Puccinia recondita The first two developed leaves of pot-grown wheat seedling were sprayed to run-off with an aqueous suspension, containing the concentration of active ingredient or their mixture as described below. The next day the plants were inoculated with spores of Puccinia recondita. To ensure the success the artificial inoculation, the plants were transferred to a humid chamber without light and a relative humidity of 95 to 99% and 20 to 24° C. for 24 hours. Then the trial plants were cultivated for 6 days in a greenhouse chamber at 20 to 24° C. and a relative humidity between 65 and 70%. The extent of fungal attack on the leaves was visually assessed as % diseased leaf area.

[2] = system: Puccinia recondita; assay: Curative control of brown rust on wheat (glass house trial); format: in vivo; conditions: 63 ppm active compound, wheat seedlings, untreated plants 80% diseased leaf area
Experimental: as §1, with “concentration. II.3) Curative” for “concentration. II.4) Preventative”, “were dusted” for “were sprayed to run-off with an aqueous suspension, containing the concentration of active ingredient or their mixture as described below. The next day the plants were inoculated”, “hours. The next day the plants were cultivated for 3 days in a greenhouse chamber at 20 to 24° C. and a relative humidity between 65 and 70%. Then the plants were sprayed to run-off with an aqueous suspension, containing the concentration of active ingredient or their mixture as described below. The plants could air-dry.” for “hours.”, “for 8” for “for 6”

CN(C)C(=O)C(F)(F)Oc1ccc(-c2noc(C(F)(F)F)n2)cc1 [I-2]
diseased leaf area [1]: 2%
diseased leaf area [2]: 3%
